From PubChem BioAssay AID248 (DTP/NCI, 2004)
Where “and” joins values, the source holds several entries; their conditions need not be identical. Equal values may be shown once. Inconclusive results and toxic doses are left out. Rule as the data show it: active = T/C of 150% or more; inactive = T/C below 125%.

Test system: L1210 leukemia ip in BDF1 mice, survival T/C
Experiment: NCI In Vivo Anticancer Drug Screen. Data for tumor model L1210 Leukemia (intraperitoneal) in B6D2F1 (BDF1) mice
Settings: endpoint: mean survival time, higher = longer survival
Summary of the method: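 Each compound was tested against a transplantable tumor grown in mice. The endpoint was survival, with treated animals benchmarked against vehicle controls as a simple ratio.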

[1] = dose: 100.0 mg/kg/injection, schedule: Q04DX002 (ip), vehicle: saline with Tween-80
[2] = dose: 200.0 mg/kg/injection, schedule: Q04DX002 (ip), vehicle: saline with Tween-80
[3] = dose: 50.0 mg/kg/injection, schedule: Q01DX001 (ip), vehicle: saline
[4] = dose: 100.0 mg/kg/injection, schedule: Q01DX001 (ip), vehicle: saline
[5] = dose: 200.0 mg/kg/injection, schedule: Q01DX001 (ip), vehicle: saline
[6] = dose: 400.0 mg/kg/injection, schedule: Q01DX001 (ip), vehicle: saline
[7] = dose: 100.0 mg/kg/injection, schedule: Q04DX003 (ip), vehicle: saline with Tween-80
[8] = dose: 200.0 mg/kg/injection, schedule: Q04DX003 (ip), vehicle: saline with Tween-80
[9] = dose: 400.0 mg/kg/injection, schedule: Q04DX003 (ip), vehicle: saline with Tween-80
[10] = dose: 100.0 mg/kg/injection, schedule: Q01DX009 (ip), vehicle: Klucel (hydroxypropylcellulose) (HPC)
[11] = dose: 100.0 mg/kg/injection, schedule: Q04DX003 (ip), vehicle: Klucel (hydroxypropylcellulose) (HPC)
[12] = dose: 200.0 mg/kg/injection, schedule: Q01DX009 (ip), vehicle: Klucel (hydroxypropylcellulose) (HPC)
[13] = dose: 200.0 mg/kg/injection, schedule: Q04DX003 (ip), vehicle: Klucel (hydroxypropylcellulose) (HPC)
[14] = dose: 400.0 mg/kg/injection, schedule: Q01DX009 (ip), vehicle: Klucel (hydroxypropylcellulose) (HPC)
[15] = dose: 400.0 mg/kg/injection, schedule: Q04DX003 (ip), vehicle: Klucel (hydroxypropylcellulose) (HPC)

Measured: T/C

O=S(=O)(/N=C1/c2ccccc2/C(=N/S(=O)(=O)c2ccccc2)C2CC=CCC12)c1ccccc1 (stereo unspecified)
inactive: dose: 25.0 mg/kg/injection, schedule: Q01DX001 (ip), vehicle: saline sonified 94 % of control | dose: 50.0 mg/kg/injection, schedule: Q01DX001 (ip), vehicle: saline sonified 95 % of control | dose: 100.0 mg/kg/injection, schedule: Q01DX001 (ip), vehicle: saline sonified 92 % of control

COc1cc(C2=N/C(=C\c3ccccc3O)C(=O)O2)cc(OC)c1OC
inactive: [1] 96 % of control | [2] 89 % of control | dose: 400.0 mg/kg/injection, schedule: Q04DX002 (ip), vehicle: saline with Tween-80 89 % of control

O=C(O)/C=C(\Cl)c1ccccc1
inactive: [3] 112 % of control | [4] 112 % of control | [5] 104 % of control | [6] 106 % of control

FC(F)(F)c1nc(=S)c2cn[nH]c2[nH]1
inactive: dose: 44.0 mg/kg/injection, schedule: Q01DX Z (ip), vehicle: methylcellulose (MC) 100 % of control | dose: 66.0 mg/kg/injection, schedule: Q01DX Z (ip), vehicle: methylcellulose (MC) 91 % of control | dose: 100.0 mg/kg/injection, schedule: Q01DX Z (ip), vehicle: methylcellulose (MC) 95 % of control

CCCCNC(C)(C)CSS(=O)(=O)O
inactive: dose: 50.0 mg/kg/injection, schedule: Q01DX009 (ip), vehicle: saline with Tween-80 97 % of control | dose: 100.0 mg/kg/injection, schedule: Q01DX009 (ip), vehicle: saline with Tween-80 109 % of control | [7] 96 % of control | dose: 200.0 mg/kg/injection, schedule: Q01DX009 (ip), vehicle: saline with Tween-80 103 % of control | [8] 96 % of control | dose: 400.0 mg/kg/injection, schedule: Q01DX009 (ip), vehicle: saline with Tween-80 103 % of control | [9] 96 % of control

CC(=O)OC1COC(SC(C)=O)C(OC(C)=O)C1OC(C)=O (stereo unspecified)
inactive: dose: 100.0 mg/kg/injection, schedule: Q01DX001 (ip), vehicle: other 95 % of control | dose: 200.0 mg/kg/injection, schedule: Q01DX001 (ip), vehicle: other 104 % of control | dose: 400.0 mg/kg/injection, schedule: Q01DX001 (ip), vehicle: other 95 % of control

O=C1CCCCC1c1sc([N+](=O)[O-])cc1[N+](=O)[O-] (stereo unspecified)
inactive: [1] 93 % of control | [2] 104 % of control

COc1ccc(C)cc1NC(=O)/C=C/c1ccccc1
inactive: dose: 100.0 mg/kg/injection, schedule: Q04DX002 (ip), vehicle: Klucel (hydroxypropylcellulose) (HPC) 100 % of control | dose: 200.0 mg/kg/injection, schedule: Q04DX002 (ip), vehicle: Klucel (hydroxypropylcellulose) (HPC) 100 % of control | dose: 400.0 mg/kg/injection, schedule: Q04DX002 (ip), vehicle: Klucel (hydroxypropylcellulose) (HPC) 100 % of control

N#Cc1cnccn1
inactive: dose: 100.0 mg/kg/injection, schedule: Q01DX009 (ip), vehicle: saline 103 % of control | dose: 100.0 mg/kg/injection, schedule: Q04DX003 (ip), vehicle: saline 93 % of control | dose: 200.0 mg/kg/injection, schedule: Q01DX009 (ip), vehicle: saline 104 % of control | dose: 200.0 mg/kg/injection, schedule: Q04DX003 (ip), vehicle: saline 100 % of control | dose: 400.0 mg/kg/injection, schedule: Q01DX009 (ip), vehicle: saline 104 % of control | dose: 400.0 mg/kg/injection, schedule: Q04DX003 (ip), vehicle: saline 93 % of control

O=c1n(C2OC(CO)C(O)C2O)ccc2nccn12 (stereo unspecified)
inactive: dose: 2.5 mg/kg/injection, schedule: Q01DX009 (ip), vehicle: saline 98 % of control | dose: 3.13 mg/kg/injection, schedule: Q03HX024 (ip), vehicle: saline 98 % of control | dose: 5.0 mg/kg/injection, schedule: Q01DX009 (ip), vehicle: saline 95 % of control | dose: 6.25 mg/kg/injection, schedule: Q03HX024 (ip), vehicle: saline 96 % of control | dose: 10.0 mg/kg/injection, schedule: Q01DX009 (ip), vehicle: saline 98 % of control | dose: 12.5 mg/kg/injection, schedule: Q03HX024 (ip), vehicle: saline 100 % of control | dose: 20.0 mg/kg/injection, schedule: Q01DX009 (ip), vehicle: saline 106 % of control | dose: 25.0 mg/kg/injection, schedule: Q03HX024 (ip), vehicle: saline 100 % of control | dose: 40.0 mg/kg/injection, schedule: Q01DX009 (ip), vehicle: saline 101 % of control | dose: 50.0 mg/kg/injection, schedule: Q01DX005 (ip), vehicle: saline 95 % of control | dose: 50.0 mg/kg/injection, schedule: Q03HX024 (ip), vehicle: saline 122 % of control | dose: 100.0 mg/kg/injection, schedule: Q01DX005 (ip), vehicle: saline 103 % of control | dose: 200.0 mg/kg/injection, schedule: Q01DX005 (ip), vehicle: saline 92 % of control | dose: 400.0 mg/kg/injection, schedule: Q01DX005 (ip), vehicle: saline 94 % of control

N#CC(C#N)=NNc1cccc(Cl)c1Cl
inactive: dose: 5.0 mg/kg/injection, schedule: Q01DX009 (ip), vehicle: saline with Tween-80 90 % of control | dose: 10.0 mg/kg/injection, schedule: Q01DX009 (ip), vehicle: saline with Tween-80 88 % of control

[NH-]CC(=O)O.[NH-]CC(=O)O.[Pt+2]
inactive: dose: 14.0 mg/kg/injection, schedule: Q01DX009 (ip), vehicle: other 89 % of control | dose: 27.9 mg/kg/injection, schedule: Q01DX001 (ip), vehicle: other 93 % of control | dose: 28.0 mg/kg/injection, schedule: Q01DX009 (ip), vehicle: other 100 % of control | dose: 55.8 mg/kg/injection, schedule: Q01DX001 (ip), vehicle: other 89 % of control | dose: 56.0 mg/kg/injection, schedule: Q01DX009 (ip), vehicle: other 96 % of control | dose: 112.0 mg/kg/injection, schedule: Q01DX001 (ip), vehicle: other 97 % of control | dose: 112.0 mg/kg/injection, schedule: Q01DX009 (ip), vehicle: other 113 % of control | dose: 223.0 mg/kg/injection, schedule: Q01DX001 (ip), vehicle: other 109 % of control

CC1CCC(C(O)(C(=O)O)C2CCC(C)CC2)CC1 (stereo unspecified)
inactive: dose: 75.0 mg/kg/injection, schedule: Q01DX001 (ip), vehicle: other 104 % of control | dose: 150.0 mg/kg/injection, schedule: Q01DX001 (ip), vehicle: other 104 % of control

COc1c2ccccc2nc2ccccc12
inactive: [7] 93 % of control | [8] 91 % of control | [9] 95 % of control

Cc1c(N=O)c(=O)n(-c2ccccc2)n1C
inactive: [10] 94 % of control | [11] 95 % of control | [12] 97 % of control | [13] 95 % of control | [14] 110 % of control | [15] 98 % of control

C/C=C/C=C\COC(=O)c1ccccc1OCC
inactive: dose: 100.0 mg/kg/injection, schedule: Q04DX002 (ip), vehicle: saline 98 % of control and 107 % of control | dose: 200.0 mg/kg/injection, schedule: Q04DX002 (ip), vehicle: saline 101 % of control and 109 % of control | dose: 400.0 mg/kg/injection, schedule: Q04DX002 (ip), vehicle: saline 109 % of control | dose: 800.0 mg/kg/injection, schedule: Q04DX002 (ip), vehicle: saline 106 % of control

CN1CCN(C)P1(=O)N1CCCC1
inactive: [4] 107 % of control | [5] 94 % of control | [6] 94 % of control

CCOC(=O)N1C(=O)NC(=O)C1c1ccccc1 (stereo unspecified)
inactive: [3] 97 % of control | [4] 115 % of control | [5] 97 % of control

CCc1ccccc1NC(=O)C(c1ccccc1)c1ccccc1
inactive: [10] 100 % of control | [11] 100 % of control | [12] 105 % of control | [13] 93 % of control | [14] 96 % of control | [15] 90 % of control

CCOC(=O)/C(C#N)=C1\CCc2cc(OC)ccc21
inactive: [4] 96 % of control | dose: 100.0 mg/kg/injection, schedule: Q01DX009 (ip), vehicle: other 103 % of control | [5] 90 % of control | dose: 200.0 mg/kg/injection, schedule: Q01DX009 (ip), vehicle: other 99 % of control | [6] 92 % of control | dose: 400.0 mg/kg/injection, schedule: Q01DX009 (ip), vehicle: other 97 % of control
